Test results: patent US20250100960A1, “NAPHTHALENE AND QUINOLINE ANALOGS AS RXFP1 AGONISTS” (BRISTOL-MYERS SQUIBB COMPANY, priority 2021, published 2025)

Experiments:
human RXFP1 = biological target: T1, human RXFP1 (Homo sapiens, UniProt Q9HBX9); assay: hRXFP1 HEK293 cAMP assay; format: cell-based; conditions: HEK293 cells stably expressing human RXFP1; intracellular cAMP by HTRF; 30 min at room temperature
T1 construct: expressed in transfected cells; host or cells: HEK293
T1 sequence (Q9HBX9 1-757): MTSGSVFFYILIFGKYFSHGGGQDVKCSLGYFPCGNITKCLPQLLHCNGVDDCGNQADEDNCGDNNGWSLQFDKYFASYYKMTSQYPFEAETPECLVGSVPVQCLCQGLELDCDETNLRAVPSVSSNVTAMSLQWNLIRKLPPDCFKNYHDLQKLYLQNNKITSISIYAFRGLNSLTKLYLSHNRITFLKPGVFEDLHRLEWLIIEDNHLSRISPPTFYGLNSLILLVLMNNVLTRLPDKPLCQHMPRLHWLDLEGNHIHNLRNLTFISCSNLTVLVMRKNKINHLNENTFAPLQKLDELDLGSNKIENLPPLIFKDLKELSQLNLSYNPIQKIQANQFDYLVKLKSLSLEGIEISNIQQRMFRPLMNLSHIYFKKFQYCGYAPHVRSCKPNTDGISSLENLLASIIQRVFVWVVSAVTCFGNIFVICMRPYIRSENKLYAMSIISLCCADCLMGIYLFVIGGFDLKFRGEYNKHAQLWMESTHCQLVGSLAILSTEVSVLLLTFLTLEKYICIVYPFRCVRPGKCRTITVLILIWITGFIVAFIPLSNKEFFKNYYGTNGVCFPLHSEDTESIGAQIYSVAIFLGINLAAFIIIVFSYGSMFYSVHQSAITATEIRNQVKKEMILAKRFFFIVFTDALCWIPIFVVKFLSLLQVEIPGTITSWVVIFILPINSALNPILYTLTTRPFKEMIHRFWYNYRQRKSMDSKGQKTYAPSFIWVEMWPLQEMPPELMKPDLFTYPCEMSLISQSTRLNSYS
Procedure: RXFP1 Cyclic Adenosine Monophosphate (cAMP) Assays. Human embryonic kidney cells 293 (HEK293) cells and HEK293 cells stably expressing human RXFP1, were cultured in MEM medium supplemented with 10% qualified FBS, and 300 μg/ml hygromycin (Life Technologies). Cells were dissociated and suspended in assay buffer. The assay buffer was HBSS buffer (with calcium and magnesium) containing 20 mM HEPES, 0.05% BSA, and 0.5 mM IBMX. Cells (3000 cells per well, except 1500 cell per well for HEK293 cells stably expressing human RXFP1) were added to 384-well Proxiplates (Perkin-Elmer). Cells were immediately treated with test compounds in DMSO (2% final) at final concentrations in the range of 0.010 nM to 50 μM. Cells were incubated for 30 min at room temperature. The level of intracellular cAMP was determined using the HTRF HiRange cAMP assay reagent kit (Cisbio) according to manufacturer's instructions. Solutions of cryptate conjugated anti-cAMP and d2 fluorophore-labelled cAMP were made in a supplied lysis buffer separately. Upon completion of the reaction, the cells were lysed with equal volume of the d2-cAMP solution and anti-cAMP solution. After a 1 h room temperature incubation, time-resolved fluorescence intensity was measured using the Envision (Perkin-Elmer) at 400 nm excitation and dual emission at 590 nm and 665 nm. A calibration curve was constructed with an external cAMP standard at concentrations ranging from 2.7 μM to 0.1 μM by plotting the fluorescent intensity ratio from 665 nm emission to the intensity from the 590 nm emission against cAMP concentrations. The potency and activity of a compound to […] cAMP production was then determined by fitting to a 4-parametric logistic equation from a plot of cAMP level versus compound concentrations.
The examples disclosed below were tested in the human RXFP1 (hRXFP1) HEK293 cAMP assay described above and found to have agonist activity. Tables 1-3, lists EC50 values in the hRXFP1 HEK293 cAMP assay measured for the examples.

[1] = intravenous (IV) formulation; cited from earlier work

Row | EC50 (human RXFP1) | Molecule | first-phase pharmacokinetic half-life [1]
1 | 190 nM | COc1ccc(C2=NOC3CC(O)CC23)cc1C(=O)Nc1cc2ccccc2cc1C(=O)Nc1ccc(F)c(C(F)(F)F)c1 (single isomer, unassigned) [Example 15, N-(4-fluoro-3-(trifluoromethyl)phenyl)-3-(5-(5-hydroxy-3a,5,6,6a-tetrahydro-4H-cyclopenta[d]isoxazol-3-yl)-2-methoxybenzamido)-2-naphthamide] | 
2 | 5000 nM | COc1ccc(C#C[C@H](C)O)cc1C(=O)Nc1cc2ccccc2cc1C(=O)Nc1ccc(F)c(C(F)(F)F)c1 [Example 10, (S)—N-(4-fluoro-3-(trifluoromethyl)phenyl)-3-(5-(3-hydroxybut-1-yn-1-yl)-2-methoxybenzamido)-2-naphthamide] | 
3 | 60 nM | COc1ccc(C2=NOC3CC(CO)CC23)cc1C(=O)Nc1cc2ccccc2cc1C(=O)Nc1ccc(F)c(C(F)(F)F)c1 (single isomer, unassigned) [Example 14, N-(4-fluoro-3-(trifluoromethyl)phenyl)-3-(5-(5-(hydroxymethyl)-3a,5,6,6a-tetrahydro-4H-cyclopenta[d]isoxazol-3-yl)-2-methoxybenzamido)-2-naphthamide] | 
4 | 4.2 nM | COc1ccc(-c2cc(C(NC(=O)C3CCOCC3)C(=O)O)ccc2F)cc1C(=O)Nc1cc2ccccc2cc1C(=O)Nc1ccc(F)c(C(F)(F)F)c1 (stereo not drawn) [Example 2, 2-(6-fluoro-3′-((3-((4-fluoro-3-(trifluoromethyl)phenyl)carbamoyl)naphthalen-2-yl)carbamoyl)-4′-methoxy-[1,1′-biphenyl]-3-yl)-2-(tetrahydro-2H-pyran-4-carboxamido)acetic acid] | 
5 | 190 nM | COc1ccc(-c2cc(C(NC(=O)C3CCOCC3)C(=O)O)ccc2F)cc1C(=O)Nc1cc2cc(Br)c(Br)cc2cc1C(=O)Nc1ccc(F)c(C(F)(F)F)c1 (stereo not drawn) [Example 3, 2-(3′-((6,7-dibromo-3-((4-fluoro-3-(trifluoromethyl)phenyl)-carbamoyl)naphthalen-2-yl)carbamoyl)-6-fluoro-4′-methoxy-[1,1′-biphenyl]-3-yl)-2-(tetrahydro-2H-pyran-4-carboxamido)acetic acid] | 
6 | 11 nM | COc1ccc(-c2cc([C@H](OC(=O)NC3CCC3)C(F)(F)F)ccc2F)cc1C(=O)Nc1cc2ccccc2cc1C(=O)Nc1ccc(F)c(C(F)(F)F)c1 [Example 5, (S)-2,2,2-trifluoro-1-(6-fluoro-3′-((3-((4-fluoro-3-(trifluoromethyl)phenyl)carbamoyl)-naphthalen-2-yl)carbamoyl)-4′-methoxy-[1,1′-biphenyl]-3-yl)ethyl cyclobutylcarbamate] | 
7 | 2600 nM | COc1ccc(-c2cc(C(=O)O)ccc2F)cc1C(=O)Nc1cc2ccc(Br)cc2cc1C(=O)Nc1ccc(F)c(C(F)(F)F)c1 [Example 8, 3′-((6-bromo-3-((4-fluoro-3-(trifluoromethyl)phenyl)carbamoyl)naphthalen-2-yl)carbamoyl)-6-fluoro-4′-methoxy-[1,1′-biphenyl]-3-carboxylic acid] | 
8 | 2000 nM | COc1ccc(N2CCCS2(=O)=O)cc1C(=O)Nc1cc2ccccc2cc1C(=O)Nc1ccc(F)c(C(F)(F)F)c1 [Example 11, 3-(5-(1,1-dioxidoisothiazolidin-2-yl)-2-methoxybenzamido)-N-(4-fluoro-3-(trifluoromethyl)-phenyl)-2-naphthamide] | 
9 | 490 nM | COc1ccc(-c2cc(C(O)C(=O)O)ccc2F)cc1C(=O)Nc1cc2ccccc2cc1C(=O)Nc1ccc(F)c(C(F)(F)F)c1 (single isomer, unassigned) [Example 4, 2-(6-fluoro-3′-((3-((4-fluoro-3-(trifluoromethyl)phenyl)carbamoyl)naphthalen-2-yl)carbamoyl)-4′-methoxy-[1,1′-biphenyl]-3-yl)-2-hydroxyacetic acid] | 
10 | 1400 nM | COc1ccc(-n2ncccc2=O)cc1C(=O)Nc1cc2ccccc2cc1C(=O)Nc1ccc(F)c(C(F)(F)F)c1 [Example 12, N-(4-fluoro-3-(trifluoromethyl)phenyl)-3-(2-methoxy-5-(6-oxopyridazin-1(6H)-yl)benzamido)-2-naphthamide] | 
11 | 4800 nM | COc1ccc(S(=O)(=O)CCCO)cc1C(=O)Nc1cc2ccccc2cc1C(=O)Nc1ccc(F)c(C(F)(F)F)c1 [Example 9, N-(4-fluoro-3-(trifluoromethyl)phenyl)-3-(5-((3-hydroxypropyl)sulfonyl)-2-methoxybenzamido)-2-naphthamide] | 
12 | 1300 nM | COc1ccc(-c2cc(C(=O)O)ccc2F)cc1C(=O)Nc1cc2c(Br)cccc2cc1C(=O)Nc1ccc(F)c(C(F)(F)F)c1 [Example 6, 3′-((8-bromo-3-((4-fluoro-3-(trifluoromethyl)phenyl)carbamoyl)naphthalen-2-yl)carbamoyl)-6-fluoro-4′-methoxy-[1,1′-biphenyl]-3-carboxylic acid] | 
13 | 1100 nM | COc1ccc(-c2cc(C(=O)O)ccc2F)cc1C(=O)Nc1cc2ccccc2cc1C(=O)Nc1ccc(F)c(C(F)(F)F)c1 [Example 1, 6-fluoro-3′-((3-((4-fluoro-3-(trifluoromethyl)phenyl)carbamoyl)naphthalen-2-yl)carbamoyl)-4′-methoxy-[1,1′-biphenyl]-3-carboxylic acid] | 
14 |  | Serelaxin | 5.4 min
15 | 320 nM | COc1ccc(C2=NOC3CC(CO)CC23)cc1C(=O)Nc1cc2ccccc2cc1C(=O)Nc1ccc(F)c(C(F)(F)F)c1 (single isomer, unassigned) [Example 13, N-(4-fluoro-3-(trifluoromethyl)phenyl)-3-(5-(5-(hydroxymethyl)-3a,5,6,6a-tetrahydro-4H-cyclopenta[d]isoxazol-3-yl)-2-methoxybenzamido)-2-naphthamide] | 
